From the supplement of paper PMC10307832

Legend:
Experiment in all cases: relative viability (nuclei count vs DMSO), 5 days (fraction); higher = more cells survive
NCI-H1734 = system: NCI-H1734
Procedure, shortened: (§1)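 For relative viability, nuclei counts in treated wells were divided by those in vehicle wells. Lung cancer cell lines had been pin-tool dosed in 1536-well plates the day after seeding and cultured for 5 days, then fixed and stained in one step (final 0.05% Triton X-100, 1% formaldehyde, 1 ug/ml Hoechst) and imaged at 4×. Doses were one drug alone or a fixed anchor-drug dose plus five library-drug doses (not always all listed) in √10 steps, and values are duplicate-plate medians.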

NCI-H1437 = system: NCI-H1437
Procedure, shortened: as §1

SK-MES-1 = system: SK-MES-1
Procedure, shortened: as §1

NCI-H647 = system: NCI-H647
Procedure, shortened: as §1

NCI-H1792 = system: NCI-H1792
Procedure, shortened: as §1

LC-2-ad = system: LC-2-ad
Procedure, shortened: as §1

EKVX = system: EKVX
Procedure, shortened: as §1

HARA = system: HARA
Procedure, shortened: as §1

NCI-H2009 = system: NCI-H2009
Procedure, shortened: as §1

NCI-H2405 = system: NCI-H2405
Procedure, shortened: as §1

BEN = system: BEN
Procedure, shortened: as §1

SK-LU-1 = system: SK-LU-1
Procedure, shortened: as §1

HCC-44 = details: first compound 0.04 µM
Procedure, shortened: as §1

Clc1ccc(Nc2nnc(Cc3ccncc3)c3ccccc23)cc1 [Vatalanib] + N=C(N)NC(=N)NCCc1ccccc1 [Phenformin] (partner 250 µM)
relative viability (NCI-H1734; first compound 0.04 µM): 0.459
relative viability (NCI-H1734; first compound 0.1265 µM): 0.328
relative viability (NCI-H1734; first compound 0.4 µM): 0.463
relative viability (NCI-H1734; first compound 1.265 µM): 0.322
relative viability (NCI-H1734; first compound 4 µM): 0.346
relative viability (NCI-H1437; first compound 0.04 µM): 0.341
relative viability (NCI-H1437; first compound 0.1265 µM): 0.281
relative viability (NCI-H1437; first compound 0.4 µM): 0.298
relative viability (NCI-H1437; first compound 1.265 µM): 0.247
relative viability (NCI-H1437; first compound 4 µM): 0.273
relative viability (SK-MES-1; first compound 0.04 µM): 0.659
relative viability (SK-MES-1; first compound 0.1265 µM): 0.638
relative viability (SK-MES-1; first compound 0.4 µM): 0.753
relative viability (SK-MES-1; first compound 1.265 µM): 0.572
relative viability (SK-MES-1; first compound 4 µM): 0.537
relative viability (NCI-H647; first compound 0.04 µM): 0.466
relative viability (NCI-H647; first compound 0.1265 µM): 0.562
relative viability (NCI-H647; first compound 0.4 µM): 0.521
relative viability (NCI-H647; first compound 1.265 µM): 0.401
relative viability (NCI-H647; first compound 4 µM): 0.54
relative viability (NCI-H1792; first compound 0.04 µM): 0.257
relative viability (NCI-H1792; first compound 0.4 µM): 0.224
relative viability (NCI-H1792; first compound 1.265 µM): 0.236
relative viability (NCI-H1792; first compound 4 µM): 0.386
relative viability (LC-2-ad; first compound 0.04 µM): 0.652
relative viability (LC-2-ad; first compound 0.1265 µM): 0.553
relative viability (LC-2-ad; first compound 1.265 µM): 0.517
relative viability (LC-2-ad; first compound 4 µM): 0.55
relative viability (EKVX; first compound 0.04 µM): 0.232
relative viability (EKVX; first compound 0.1265 µM): 0.236
relative viability (EKVX; first compound 0.4 µM): 0.205
relative viability (EKVX; first compound 4 µM): 0.212
relative viability (HARA; first compound 0.04 µM): 0.452
relative viability (HARA; first compound 0.1265 µM): 0.397
relative viability (HARA; first compound 0.4 µM): 0.497
relative viability (HARA; first compound 1.265 µM): 0.42
relative viability (HARA; first compound 4 µM): 0.354
relative viability (NCI-H2009; first compound 0.04 µM): 0.578
relative viability (NCI-H2009; first compound 0.1265 µM): 0.439
relative viability (NCI-H2009; first compound 0.4 µM): 0.464
relative viability (NCI-H2009; first compound 1.265 µM): 0.406
relative viability (NCI-H2009; first compound 4 µM): 0.391
relative viability (NCI-H2405; first compound 0.04 µM): 0.425
relative viability (NCI-H2405; first compound 0.1265 µM): 0.376
relative viability (NCI-H2405; first compound 1.265 µM): 0.391
relative viability (NCI-H2405; first compound 4 µM): 0.368
relative viability (BEN; first compound 0.04 µM): 0.29
relative viability (BEN; first compound 0.1265 µM): 0.233
relative viability (BEN; first compound 0.4 µM): 0.274
relative viability (BEN; first compound 1.265 µM): 0.231
relative viability (BEN; first compound 4 µM): 0.306
relative viability (SK-LU-1; first compound 0.04 µM): 0.631
relative viability (SK-LU-1; first compound 0.1265 µM): 0.462
relative viability (SK-LU-1; first compound 0.4 µM): 0.663
relative viability (SK-LU-1; first compound 1.265 µM): 0.494
relative viability (SK-LU-1; first compound 4 µM): 0.52
relative viability (HCC-44): 0.178
